# Laboratory results reported in patent US12679878B2, “CRF2 receptor agonists and their use in therapy” (SANOFI, priority 2020, dated 2026).
# Read-outs that look alike come from different tables or passages of the source. Starred links: 1 amine or outer side, 2 acyl side, 3 side chain; linkers in the order of their positions; H or OH if unused. Non-standard residues stand in square brackets, D forms with d. Residues, ends and D or L forms follow the SMILES beside them. Groups on a side chain read outwards from the residue. No end group written: not given here. *: point of attachment. C18 diacid = O=C(O)CCCCCCCCCCCCCCCCC(=O)*; γGlu = O=C(O)[C@H](CCC(=O)[*:2])N[*:1]; AEEA = NCCOCCOCC(=O)O; Aib = CC(C)(N)C(=O)O
# T1: human CRF2α receptor (Homo sapiens, UniProt Q13324)
# T1 construct: expressed in transfected cells; host or cells: TeloHEAC
# T1 sequence (Q13324 1-411): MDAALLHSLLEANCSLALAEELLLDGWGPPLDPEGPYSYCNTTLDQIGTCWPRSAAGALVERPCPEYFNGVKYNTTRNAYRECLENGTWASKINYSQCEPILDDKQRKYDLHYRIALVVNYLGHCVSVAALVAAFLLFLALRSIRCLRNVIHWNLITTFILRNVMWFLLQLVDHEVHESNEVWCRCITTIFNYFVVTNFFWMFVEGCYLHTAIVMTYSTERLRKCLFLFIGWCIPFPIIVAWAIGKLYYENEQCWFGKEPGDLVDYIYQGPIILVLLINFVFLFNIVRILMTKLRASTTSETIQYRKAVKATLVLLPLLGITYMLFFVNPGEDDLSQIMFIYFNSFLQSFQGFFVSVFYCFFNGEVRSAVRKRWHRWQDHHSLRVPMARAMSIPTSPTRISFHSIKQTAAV
# T2: endogenous human CRF2 (NCI-H82 cells) (human, UniProt Q13324 20-411)
# T2 sequence (looked up): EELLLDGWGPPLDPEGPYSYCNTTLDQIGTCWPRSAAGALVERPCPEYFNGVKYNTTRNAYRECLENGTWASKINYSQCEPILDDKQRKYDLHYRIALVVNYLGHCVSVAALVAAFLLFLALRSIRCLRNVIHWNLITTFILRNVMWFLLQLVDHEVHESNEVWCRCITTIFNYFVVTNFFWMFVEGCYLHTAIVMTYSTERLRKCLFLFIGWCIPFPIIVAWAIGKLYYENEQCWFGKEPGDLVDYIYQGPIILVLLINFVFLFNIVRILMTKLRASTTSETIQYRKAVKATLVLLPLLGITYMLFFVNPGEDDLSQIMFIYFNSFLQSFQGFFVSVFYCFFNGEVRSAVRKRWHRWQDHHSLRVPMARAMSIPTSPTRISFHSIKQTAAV
# B1: peptide of SEQ ID NO: 143 (peptide)
# peptide: FTLSLDVPTKIK([AEEA-AEEA-γGlu-C18 diacid])QILLKQEKQKKQRQKAKTNKQILERV-NH2
# modifications: N-terminus assumed
# SMILES: CC[C@H](C)[C@H](NC(=O)[C@H](CCC(N)=O)NC(=O)[C@H](CCCCN)NC(=O)[C@H](CC(N)=O)NC(=O)[C@@H](NC(=O)[C@H](CCCCN)NC(=O)[C@H](C)NC(=O)[C@H](CCCCN)NC(=O)[C@H](CCC(N)=O)NC(=O)[C@H](CCCNC(=N)N)NC(=O)[C@H](CCC(N)=O)NC(=O)[C@H](CCCCN)NC(=O)[C@H](CCCCN)NC(=O)[C@H](CCC(N)=O)NC(=O)[C@H](CCCCN)NC(=O)[C@H](CCC(=O)O)NC(=O)[C@H](CCC(N)=O)NC(=O)[C@H](CCCCN)NC(=O)[C@H](CC(C)C)NC(=O)[C@H](CC(C)C)NC(=O)[C@@H](NC(=O)[C@H](CCC(N)=O)NC(=O)[C@H](CCCCNC(=O)COCCOCCNC(=O)COCCOCCNC(=O)CC[C@H](NC(=O)CCCCCCCCCCCCCCCCC(=O)O)C(=O)O)NC(=O)[C@@H](NC(=O)[C@H](CCCCN)NC(=O)[C@@H](NC(=O)[C@@H]1CCCN1C(=O)[C@@H](NC(=O)[C@H](CC(=O)O)NC(=O)[C@H](CC(C)C)NC(=O)[C@H](CO)NC(=O)[C@H](CC(C)C)NC(=O)[C@@H](NC(=O)[C@@H](N)Cc1ccccc1)[C@@H](C)O)C(C)C)[C@@H](C)O)[C@@H](C)CC)[C@@H](C)CC)[C@@H](C)O)C(=O)N[C@@H](CC(C)C)C(=O)N[C@@H](CCC(=O)O)C(=O)N[C@@H](CCCNC(=N)N)C(=O)N[C@H](C(N)=O)C(C)C
# B2: peptide of SEQ ID NO: 141 (peptide)
# peptide: IVLSLD[dV]PIKLK([AEEA-AEEA-γGlu-C18 diacid])QILLKQARQK[Aib]QRAQAEKNKRILERV-NH2
# modifications: N-terminus assumed
# SMILES: CC[C@H](C)[C@H](N)C(=O)N[C@H](C(=O)N[C@@H](CC(C)C)C(=O)N[C@@H](CO)C(=O)N[C@@H](CC(C)C)C(=O)N[C@@H](CC(=O)O)C(=O)N[C@@H](C(=O)N1CCC[C@H]1C(=O)N[C@H](C(=O)N[C@@H](CCCCN)C(=O)N[C@@H](CC(C)C)C(=O)N[C@@H](CCCCNC(=O)COCCOCCNC(=O)COCCOCCNC(=O)CC[C@H](NC(=O)CCCCCCCCCCCCCCCCC(=O)O)C(=O)O)C(=O)N[C@@H](CCC(N)=O)C(=O)N[C@H](C(=O)N[C@@H](CC(C)C)C(=O)N[C@@H](CC(C)C)C(=O)N[C@@H](CCCCN)C(=O)N[C@@H](CCC(N)=O)C(=O)N[C@@H](C)C(=O)N[C@@H](CCCNC(=N)N)C(=O)N[C@@H](CCC(N)=O)C(=O)N[C@@H](CCCCN)C(=O)NC(C)(C)C(=O)N[C@@H](CCC(N)=O)C(=O)N[C@@H](CCCNC(=N)N)C(=O)N[C@@H](C)C(=O)N[C@@H](CCC(N)=O)C(=O)N[C@@H](C)C(=O)N[C@@H](CCC(=O)O)C(=O)N[C@@H](CCCCN)C(=O)N[C@@H](CC(N)=O)C(=O)N[C@@H](CCCCN)C(=O)N[C@@H](CCCNC(=N)N)C(=O)N[C@H](C(=O)N[C@@H](CC(C)C)C(=O)N[C@@H](CCC(=O)O)C(=O)N[C@@H](CCCNC(=N)N)C(=O)N[C@H](C(N)=O)C(C)C)[C@@H](C)CC)[C@@H](C)CC)[C@@H](C)CC)C(C)C)C(C)C
# Experiments:
# [1] = Physical stability, dynamic light scattering assay (Example 15); format: physicochemical; details: Buffer D (20 mM phosphate, pH 7.4)
# Method: The physical stability of the compounds was also assessed using a dynamic light scattering assay.
# In the present study, the physical stability of test compounds was assessed by determining the apparent hydrodynamic radius (Rh), the scattering intensity (I) and mass contribution (M) after synthesis (0 weeks) and after storage for 4 weeks at 40° C.
# For each solution of test compound, the hydrodynamic radius Rh and the diffusion constant D (related via the Stokes-Einstein equation) were determined as an average over triplicates. Both parameters were determined at different compound concentrations (e.g., Rh1 and D1: 1 mg/ml and Rh5 and D5: 5 mg/ml, Rh10 and D10: 10 mg/mL) in the same buffer system. The difference of these parameters between low and high peptide concentration is a surrogate for the DLS interaction parameter kD. […] In addition, the hydrodynamic radius Rh and the corresponding Scattering Intensity (%) were determined as an average over duplicates. The target concentration was 300 μM. Therefore, solutions from solid samples were prepared in a buffer system with a concentration of 300 μM compound based on the previously determined % purity.
# DLS measurements were performed on a DynaPro Plate Reader I (Wyatt Technology, Santa Barbara, CA, US) with an 837 nm laser light source at a scattering angle of 150°. The data were collected and processed with Dynamics V 7.8.1.3 or 7.8.2.18 software provided by Wyatt Technology.
# Hydrodynamic radii were determined with non-negatively constrained least squares (NNLS) methods using DYNALS algorithms with regularization fit. […] Samples were tempered over 1 hour at +25° C. and visually inspected before analysis.
# Samples were mixed with the aid of a pipet tip. Measurements were performed in 5 replicates. […] The plate was centrifuged for 2 minutes at 600 rcf. After removing the sealing, the samples were measured at +25° C.
# [2] = Physical stability, Thioflavin T fibrillation assay (Example 14); format: physicochemical; details: 3 mg/ml, 37° C. shaking
# In short: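 Compounds at 3 mg/ml final in buffer were stressed at 37° C by repeated cycles of 10 s shaking at 960 rpm and 50 s rest. ThT fluorescence was read every 20 minutes in eight replicates, with fluorescence increase and lag time indicating fibrillation tendency.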
# [3] = Chemical stability, purity loss by UPLC-UV after 28 days at 40° C. vs 5° C., pH 4.5 acetate buffer (Example 12); format: physicochemical; details: 28 days 40° C. vs 5° C.; pH 4.5, 20 mM acetate buffer; 300 μM
# In short: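 300 μM compound (purity-corrected) in 20 mM acetate buffer, pH 4.5, stored 28 days at 5 and 40° C. Purity by UPLC-UV as compound peak area over total peak area. Value is the purity difference between 5° C. and 40° C. samples, relative to the 5° C. purity, in percent.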
# rat CRF2R α receptor [4] = test: cAMP agonism at rat CRF2R α receptor in A7R5 rat aortic smooth muscle cells (Example 8); format: cell-based; details: cAMP HTRF, A7R5 rat aortic smooth muscle cell line, 0% HSA
# In short: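 Thawed cryopreserved A7R5 cells in HBSS/20 mM HEPES (0 or 0.1% HSA) with 2 mM IBMX, 2000 cells/well, were exposed to compound for 30 min at room temperature. cAMP was read by HTRF (665/620 nm ratio) after 1 h with lysis reagents. Activity was normalised to 1000 nM urocortin 2 as 100%, and EC50 was taken as the concentration giving 50% of maximal activation.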
# human CRF2α receptor = target: T1, human CRF2α receptor; test: cAMP agonism at human CRF2 α receptor in TeloHEAC cells (Example 7); format: cell-based; details: cAMP HTRF, TeloHEAC cells stably expressing human CRF2 α
# In short: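 Steps: thaw and wash cells; suspend in 1×HBSS, 20 mM HEPES, 0 or 0.1% HSA, 2 mM IBMX; add compound, 30 min RT; lyse with HTRF reagents, 1 h; read 665/620 nm. EC50 calculated, E% versus 1000 nM UCN2.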
# [5] = Solubility in buffer systems by UPLC-UV (Example 13); format: physicochemical; details: pH 4.5, Solubility in Buffer B [mg/ml]
# In short: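 The supernatant was diluted 1:10 and quantified by UPLC-UV peak area against a reference standard curve, correcting for sequence-based extinction coefficients.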
# [6] = target: T2, endogenous human CRF2 (NCI-H82 cells); test: cell-based or functional assay
# rat CRF2R α receptor [7] = target: rat CRF2R α receptor (rat, UniProt P47866 20-411); test: cell-based or functional assay
# [8] = Buffer A: 100 mM acetate buffer, pH 4.5
# [9] = Buffer B: 100 mM acetate buffer, pH 4.5, 2.7 mg/ml m-cresol
Molecule,Apparent Rh [nm] 0 weeks ([1]; 0 weeks) [nm],Scattering Intensity (I) [%] 0 weeks ([1]; 0 weeks) [%],Apparent Rh [nm] 4 weeks ([1]; 4 weeks at 40° C.) [nm],Scattering Intensity (I) [%] 4 weeks ([1]; 4 weeks at 40° C.) [%],"Increase in FI (fluorescence intensity) [2, 8]","Lag time [2, 8] [h]","Increase in FI (fluorescence intensity) [2, 9]","Lag time [2, 9] [h]",Relative purity loss [%] [3] [%],EC50 (rat CRF2R α receptor [4]) [nM],"EC50 (human CRF2α receptor; 0% HSA, read-out: EC50 [nM], 0% HSA) [nM]","EC50 (human CRF2α receptor; 0.1% HSA, read-out: EC50 [nM], 0.1% HSA) [nM]",solubility at 1 h [5] [µg/mL],"EC50 [nM] (cAMP, NCI-H82 cells) [6]","EC50 [nM], 0% HSA (cAMP, A7R5 cells) (rat CRF2R α receptor [7]) [nM]"
CC[C@H](C)[C@H](N)C(=O)N[C@H](C(=O)N[C@@H](CC(C)C)C(=O)N[C@@H](CO)C(=O)N[C@@H](CC(C)C)C(=O)N[C@@H](CC(=O)O)C(=O)N[C@@H](C(=O)N1CCC[C@H]1C(=O)N[C@H](C(=O)N[C@@H](CCCCN)C(=O)N[C@@H](CC(C)C)C(=O)N[C@@H](CCCCNC(=O)COCCOCCNC(=O)COCCOCCNC(=O)CC[C@H](NC(=O)CCCCCCCCCCCCCCCCC(=O)O)C(=O)O)C(=O)N[C@@H](CCC(N)=O)C(=O)N[C@H](C(=O)N[C@@H](CC(C)C)C(=O)N[C@@H](CC(C)C)C(=O)N[C@@H](CCCCN)C(=O)N[C@@H](CCC(N)=O)C(=O)N[C@@H](C)C(=O)N[C@@H](CCCNC(=N)N)C(=O)N[C@@H](CCC(N)=O)C(=O)N[C@@H](CCCCN)C(=O)NC(C)(C)C(=O)N[C@@H](CCC(N)=O)C(=O)N[C@@H](CCCNC(=N)N)C(=O)N[C@@H](C)C(=O)N[C@@H](CCC(N)=O)C(=O)N[C@@H](C)C(=O)N[C@@H](CCC(=O)O)C(=O)N[C@@H](CCCCN)C(=O)N[C@@H](CC(N)=O)C(=O)N[C@@H](CCCCN)C(=O)N[C@@H](CCCNC(=N)N)C(=O)N[C@H](C(=O)N[C@@H](CC(C)C)C(=O)N[C@@H](CCC(=O)O)C(=O)N[C@@H](CCCNC(=N)N)C(=O)N[C@H](C(N)=O)C(C)C)[C@@H](C)CC)[C@@H](C)CC)[C@@H](C)CC)C(C)C)C(C)C [compound 141] (H-IVLSLD[dV]PIKLK([AEEA-AEEA-γGlu-C18 diacid])QILLKQARQK[Aib]QRAQAEKNKRILERV-NH2),2.19 ± 0.18,100 ± 1,2.34 ± 0.22,98 ± 2,No,>45,No,>45,2.90,0.05,0.03,0.97,> 8300,,
B1,,,,,,,,,,,,,,93,
B2,,,,,,,,,,,,,,12,0.05
